Test results reported in patent US20100267784A1, “NOVEL 4,5-DIHYDROISOXAZOLES WITH ESTROGENIC ACTIVITY” (priority 2007, published 2010).
Values joined by “and” are separate entries in the source; they are usually repeats but may differ in a detail not shown here. Identical values can stand only once.

Assays:
[1] = molecular target: T1, ERα (Homo sapiens, UniProt P03372); test: ERα reporter (luciferase) transactivation assay in transfected HEK293 cells; assay type: cell-based; set-up: expressed in transfected cells; host or cells: HEK293; conditions: sample concentration 10 μM, 24 hours, mean of at least three independent transfections
T1 sequence (P03372 1-595): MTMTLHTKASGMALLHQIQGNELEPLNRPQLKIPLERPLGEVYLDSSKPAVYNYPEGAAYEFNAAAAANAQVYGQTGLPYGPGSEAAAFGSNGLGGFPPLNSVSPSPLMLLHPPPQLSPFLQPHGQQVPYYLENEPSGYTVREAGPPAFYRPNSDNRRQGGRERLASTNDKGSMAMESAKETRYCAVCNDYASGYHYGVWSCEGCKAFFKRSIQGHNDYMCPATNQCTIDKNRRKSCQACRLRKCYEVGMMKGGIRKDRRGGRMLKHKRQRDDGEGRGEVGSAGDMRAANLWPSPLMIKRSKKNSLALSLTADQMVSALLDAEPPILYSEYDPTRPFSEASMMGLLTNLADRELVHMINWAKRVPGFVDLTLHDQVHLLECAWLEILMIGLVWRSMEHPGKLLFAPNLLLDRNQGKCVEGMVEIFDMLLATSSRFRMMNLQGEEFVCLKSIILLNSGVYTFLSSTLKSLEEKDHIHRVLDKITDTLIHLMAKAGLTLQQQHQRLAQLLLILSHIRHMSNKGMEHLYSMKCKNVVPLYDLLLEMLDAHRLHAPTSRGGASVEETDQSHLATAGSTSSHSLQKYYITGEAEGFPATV
Procedure: (§1) Determination of the Estrogen Activity of the Compounds: Cell Culture, Transfection and Reporter Assays
(§2) All other reagents were of reagent grade from Sigma or Fluka. One day before transfection, HEK293 cells were seeded in 48-well plates (70×10^3 cells per well) in phenol-free Dulbecco's modified Eagle medium supplemented with 5% delipidated fetal bovine serum (Sigma) and antibiotics. After a medium change, the cells were transfected for 4 hours with 5 ng ERα or ERβ expression vector, 75 ng reporter plasmid pERE2TATA-LUC and 20 ng control plasmid pCMVβ by the calcium phosphate method. After transfection, the cells received fresh medium containing either vehicle (0.1% v/v) or test compound (10 μM). After 24 hours, the cells were washed, lysed and luciferase and β-galactosidase activities were determined from 20 μl of lysates with the Victor^2TM reader (PerkinElmer Wallac, Turku, Finland). […] The data are means ±SEM of at least three independent transfections.

[2] = molecular target: ERβ (Homo sapiens, UniProt Q92731); test: ERβ reporter (luciferase) transactivation assay in transfected HEK293 cells; assay type: cell-based; set-up: expressed in transfected cells; host or cells: HEK293; conditions: for ERβ receptor activation relative to 10 nM E2 corresponding 100: sample concentration 10 μM, 24 hours, mean of at least three independent transfections; for activation at 10 µM: HEK293, 24 h, read-out: ERβ receptor activation relative to 10 nM E2 corresponding 100, sample concentration 10 μM, mean of at least three independent transfections
Chain of ERβ (Q92731 whole entry): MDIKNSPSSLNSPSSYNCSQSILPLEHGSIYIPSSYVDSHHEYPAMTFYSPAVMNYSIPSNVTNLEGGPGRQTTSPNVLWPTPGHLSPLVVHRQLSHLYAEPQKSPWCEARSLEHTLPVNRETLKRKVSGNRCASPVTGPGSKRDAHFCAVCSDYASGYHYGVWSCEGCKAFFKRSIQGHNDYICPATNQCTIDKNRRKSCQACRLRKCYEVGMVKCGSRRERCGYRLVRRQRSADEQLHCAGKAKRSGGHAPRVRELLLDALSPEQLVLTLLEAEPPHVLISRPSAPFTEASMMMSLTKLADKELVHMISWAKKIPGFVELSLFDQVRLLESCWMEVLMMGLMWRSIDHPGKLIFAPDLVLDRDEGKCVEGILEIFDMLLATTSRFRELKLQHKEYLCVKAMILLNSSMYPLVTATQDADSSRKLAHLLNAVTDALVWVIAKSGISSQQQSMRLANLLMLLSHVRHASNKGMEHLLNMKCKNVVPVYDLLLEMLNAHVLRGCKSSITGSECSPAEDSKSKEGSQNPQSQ
Procedure: as §1, §2

| melting point | ERα receptor activation relative to 10 nM E2 corresponding 100 [1] | ERβ receptor activation relative to 10 nM E2 corresponding 100 [2] | activation at 10 µM [2] | Structure (SMILES) |
| --- | --- | --- | --- | --- |
| 128.2 to 129.4 °C |  |  |  | Clc1ccc(C2=NOC(Cc3ccccc3)C2)cc1 (stereo not shown) [compound 33, 5-Benzyl-3-(4-Chlorophenyl)-4,5-dihydroisoxazole] |
| 67 to 68 °C |  |  |  | c1ccc(CC2CC(c3ccccc3)=NO2)cc1 (stereo not shown) [compound 107, 5-Benzyl-3-phenyl-4,5-dihydroisoxazole] |
|  | 38.2% | 1.3% |  | c1ccc(CCC2=NOC(Cc3ccccc3)C2)cc1 (single isomer, unassigned) [109b, 5-Benzyl-3-phenethyl-4,5-dihydroisoxazole] |
|  | 0.4% | 6.4% |  | COc1ccccc1CC1CC(CCc2ccccc2)=NO1 (single isomer, unassigned) [64b, 5-(2-Methoxybenzyl)-3-phenethyl-4,5-dihydroisoxazole] |
|  | 34.2% | 9.1% |  | Oc1ccc(CC2CC(CCc3ccccc3)=NO2)cc1 (single isomer, unassigned) [94a, 5-(4-Hydroxy-benzyl)-3-phenethyl-4,5-dihydro-isoxazole] |
|  | 22.3% | 8.2% |  | c1ccc(CCC2=NOC(Cc3ccc4ccccc4c3)C2)cc1 (single isomer, unassigned) [68a, 5-naphthalen-2-yl-methyl-3-phenethyl-4,5-dihydroisoxazole] |
|  | 52.0% |  | 28.5% | Oc1ccc(C2=NOC(Cc3ccccc3)C2)cc1 (single isomer, unassigned) [80a, 5-Benzyl-3-(4-hydroxy-phenyl)-4,5-dihydro-isoxazole] |
|  | 19.2% | 6.7% |  | Oc1cccc(CCC2=NOC(Cc3ccccc3)C2)c1 (single isomer, unassigned) [92a, 5-Benzyl-3-[2-(3-hydroxy-phenyl)-ethyl]-4,5-dihydro-isoxazole] |
|  | 10.9% | −7.3% |  | CC1(c2ccccc2)CC(CCc2ccccc2)=NO1 (single isomer, unassigned) [71b, 5-Methyl-3-phenethyl-5-phenyl-4,5-dihydroisoxazole] |
|  | 19.6% |  | 34.4% | c1ccc(CC2=NOC(c3ccccc3)C2)cc1 (stereo not shown) [112ab, 3-Benzyl-5-phenyl-4,5-dihydroisoxazole] |
|  | 58.6% | 17.7% |  | Oc1ccc(C2=NOC(Cc3ccccc3)C2)cc1 (single isomer, unassigned) [80b, 5-Benzyl-3-(4-hydroxy-phenyl)-4,5-dihydro-isoxazole] |
|  | 9.7% | 7.9% |  | COc1ccc(C2=NOC(Cc3ccccc3)C2)cc1 (single isomer, unassigned) [12b, 5-Benzyl-3-(4-methoxyphenyl)-4,5-dihydroisoxazole] |
|  | 105.2% | 42.4% |  | Oc1ccc(CC2CC(CCc3ccccc3)=NO2)cc1 (single isomer, unassigned) [94b, 5-(4-Hydroxy-benzyl)-3-phenethyl-4,5-dihydro-isoxazole] |
|  | 43.9% | −0.4% |  | c1ccc(CCC2=NOC(CCc3ccccc3)C2)cc1 (single isomer, unassigned) [116b, 3,5-Di-phenethyl-4,5-dihydroisoxazole] |
|  | 28.9% | 7.4% |  | Fc1ccc(CC2CC(CCc3ccccc3)=NO2)cc1 (single isomer, unassigned) [66b, 5-(4-fluorobenzyl)-3-phenethyl-4,5-dihydroisoxazole] |

More lines, now with the values behind:

| Structure (SMILES) | melting point | ERα receptor activation relative to 10 nM E2 corresponding 100 [1] | ERβ receptor activation relative to 10 nM E2 corresponding 100 [2] | activation at 10 µM [2] |
| --- | --- | --- | --- | --- |
| COc1ccccc1CC1CC(c2ccc(Cl)cc2)=NO1 (stereo not shown) [compound 36, 3-(4-Chlorophenyl)-5-(2-methoxybenzyl)-4,5-dihydroisoxazole] | 109.9 to 111.2 °C |  |  |  |
| COc1ccc(C2=NOC(Cc3c(F)c(F)c(F)c(F)c3F)C2)cc1 (stereo not shown) [compound 19, 3-(4-methoxyphenyl)-5-pentafluorobenzyl-4,5-dihydroisoxazole] | 123 to 124 °C |  |  |  |
| COc1ccc(CC2CC(c3ccc(Cl)cc3)=NO2)cc1OC (stereo not shown) [compound 39, 3-(4-Chlorophenyl)-5-(3,4-dimethoxybenzyl)-4,5-dihydroisoxazole] | 89 to 90.4 °C |  |  |  |
| COc1ccccc1C1=NOC(Cc2ccccc2)(c2ccccc2)C1 (stereo not shown) [compound 74, 5-Benzyl-3-(2-methoxyphenyl)-5-phenyl-4,5-dihydro-isoxazole] | 109.3 to 110.2 °C |  |  |  |
| Oc1ccccc1CCC1=NOC(Cc2ccc(F)cc2)C1 (stereo not shown) [compound 97, 5-(4-Fluoro-benzyl)-3-[2-(2-hydroxy-phenyl)-ethyl]-4,5-dihydro-isoxazole] | 124.8 to 126.4 °C |  |  |  |
| Oc1ccccc1CCC1=NOC(Cc2ccc(F)cc2)C1 (single isomer, unassigned) [97a, 5-(4-Fluoro-benzyl)-3-[2-(2-hydroxy-phenyl)-ethyl]-4,5-dihydro-isoxazole] |  | 82.0% | 3.4% |  |
| Oc1ccc(CCCC2=NOC(Cc3ccc(O)cc3)C2)cc1 (single isomer, unassigned) [101b, 5-(4-Hydroxy-benzyl)-3-[3-(4-hydroxy-phenyl)-propyl]-4,5-dihydro-isoxazole] |  | 13.6% | 10.6% |  |
| Oc1ccc(CCC2=NOC(CCc3ccccc3)C2)cc1 (single isomer, unassigned) [106b, 3-[2-(4-Hydroxy-phenyl)-ethyl]-5-phenethyl-4,5-dihydro-isoxazole] |  | 15.8% | 0.8% |  |
| Fc1cccc(CC2=NOC(CCc3ccccc3)C2)c1 (stereo not shown) [69ab, 3-(3-Fluorobenzyl)-5-phenethyl-4,5-dihydroisoxazole] |  | 19.5% and 19.7% |  | 10.6% |
| Oc1ccccc1CCC1=NOC(Cc2ccc(F)cc2)C1 (single isomer, unassigned) [97b, 5-(4-Fluoro-benzyl)-3-[2-(2-hydroxy-phenyl)-ethyl]-4,5-dihydro-isoxazole] |  | 11.1% | −2.4% |  |
| COc1ccc(CCCC2=NOC(c3ccccc3)C2)cc1 (single isomer, unassigned) [72b, 3-[3-(4-Methoxy-phenyl)-propyl]-5-phenyl-4,5-dihydroisoxazole] |  | 1.2% | −9.0% |  |
| Oc1ccc(CC2CC(CCCc3ccccc3)=NO2)cc1 (single isomer, unassigned) [100a, 5-(4-Hydroxy-benzyl)-3-(3-phenyl-propyl)-4,5-dihydro-isoxazole] |  | 67.1% | 4.7% |  |
| Oc1ccc(CCCC2=NOC(Cc3ccccc3)C2)cc1 (single isomer, unassigned) [99b, 5-Benzyl-3-[3-(4-hydroxy-phenyl)-propyl]-4,5-dihydro-isoxazole] |  | 75.1% | 19.8% |  |
| Oc1ccc(CC2=NOC(c3cccc(O)c3)C2)cc1 (single isomer, unassigned) [83a, 3-(4-Hydroxy-benzyl)-5-(3-hydroxy-phenyl)-4,5-dihydro-isoxazole] |  | 30.8% |  | 33.2% |
| Oc1cccc(CCC2=NOC(CCc3ccccc3)C2)c1 (single isomer, unassigned) [105a, 3-[2-(3-Hydroxy-phenyl)-ethyl]-5-phenethyl-4,5-dihydro-isoxazole] |  | 8.3% |  | 2.6% |
| Oc1ccc(CCCC2=NOC(c3cccc(O)c3)C2)cc1 (single isomer, unassigned) [89a, 3-[3-(4-Hydroxy-phenyl)-propyl]-5-(3-hydroxy-phenyl)-4,5-dihydro-isoxazole] |  | 32.9% |  | 12% |
